Legend:
Experiment in all cases: KinaseProfiler panel
Assay type in all cases: biochemical
Set-up in all cases: dose or concentration left out as unconfirmed
Details in all cases: activity remaining
PKAcβ(h) = PKAcβ(h) (Homo sapiens (Human), UniProt P22694)
DCAMKL3(h) = DCAMKL3(h) (Homo sapiens (Human), UniProt Q9C098)
PKBα(h) = PKBα(h) (Homo sapiens (Human), UniProt P31749)
TSSK2(h) = TSSK2(h) (Homo sapiens (Human), UniProt Q96PF2)
EphA1(h) = EphA1(h) (Homo sapiens (Human), UniProt P21709)
MST4(h) = MST4(h) (Homo sapiens (Human), UniProt Q9P289)
Chain of MST4(h) (Q9P289 whole entry): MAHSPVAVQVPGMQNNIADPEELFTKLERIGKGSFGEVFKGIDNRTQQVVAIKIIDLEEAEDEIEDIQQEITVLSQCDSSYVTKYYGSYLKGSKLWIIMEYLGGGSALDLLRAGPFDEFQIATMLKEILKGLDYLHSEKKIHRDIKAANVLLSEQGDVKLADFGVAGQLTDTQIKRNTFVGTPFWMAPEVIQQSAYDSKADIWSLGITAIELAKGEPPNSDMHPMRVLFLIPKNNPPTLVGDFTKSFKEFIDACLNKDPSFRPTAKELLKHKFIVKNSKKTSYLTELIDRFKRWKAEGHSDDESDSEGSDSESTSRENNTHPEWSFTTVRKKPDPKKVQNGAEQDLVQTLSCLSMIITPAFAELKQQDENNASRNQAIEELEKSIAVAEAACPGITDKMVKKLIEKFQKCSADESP

Chain of PKBα(h) (P31749 whole entry): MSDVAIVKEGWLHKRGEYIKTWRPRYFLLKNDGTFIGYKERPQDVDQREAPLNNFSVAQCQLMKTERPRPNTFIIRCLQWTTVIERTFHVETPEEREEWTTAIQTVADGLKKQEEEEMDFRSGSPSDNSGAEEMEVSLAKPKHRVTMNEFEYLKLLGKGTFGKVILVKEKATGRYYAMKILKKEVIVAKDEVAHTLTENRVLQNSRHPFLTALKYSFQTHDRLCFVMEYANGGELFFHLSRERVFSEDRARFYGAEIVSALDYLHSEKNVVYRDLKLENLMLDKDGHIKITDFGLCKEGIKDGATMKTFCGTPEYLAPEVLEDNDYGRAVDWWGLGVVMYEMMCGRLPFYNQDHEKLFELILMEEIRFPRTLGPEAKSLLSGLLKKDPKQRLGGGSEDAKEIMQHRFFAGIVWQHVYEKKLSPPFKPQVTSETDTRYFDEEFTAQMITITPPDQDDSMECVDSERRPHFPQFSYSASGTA
Chain of TSSK2(h) (Q96PF2 whole entry): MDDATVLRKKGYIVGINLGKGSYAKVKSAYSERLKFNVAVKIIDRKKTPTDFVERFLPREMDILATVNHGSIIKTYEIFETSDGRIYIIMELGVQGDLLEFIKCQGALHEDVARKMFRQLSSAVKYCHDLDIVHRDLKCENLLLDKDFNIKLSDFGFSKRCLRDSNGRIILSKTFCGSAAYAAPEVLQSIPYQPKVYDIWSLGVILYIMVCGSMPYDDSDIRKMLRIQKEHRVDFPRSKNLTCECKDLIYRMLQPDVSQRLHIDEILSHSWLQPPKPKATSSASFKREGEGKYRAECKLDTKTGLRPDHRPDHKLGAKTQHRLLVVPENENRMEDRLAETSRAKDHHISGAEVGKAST
Chain of EphA1(h) (P21709 26-976): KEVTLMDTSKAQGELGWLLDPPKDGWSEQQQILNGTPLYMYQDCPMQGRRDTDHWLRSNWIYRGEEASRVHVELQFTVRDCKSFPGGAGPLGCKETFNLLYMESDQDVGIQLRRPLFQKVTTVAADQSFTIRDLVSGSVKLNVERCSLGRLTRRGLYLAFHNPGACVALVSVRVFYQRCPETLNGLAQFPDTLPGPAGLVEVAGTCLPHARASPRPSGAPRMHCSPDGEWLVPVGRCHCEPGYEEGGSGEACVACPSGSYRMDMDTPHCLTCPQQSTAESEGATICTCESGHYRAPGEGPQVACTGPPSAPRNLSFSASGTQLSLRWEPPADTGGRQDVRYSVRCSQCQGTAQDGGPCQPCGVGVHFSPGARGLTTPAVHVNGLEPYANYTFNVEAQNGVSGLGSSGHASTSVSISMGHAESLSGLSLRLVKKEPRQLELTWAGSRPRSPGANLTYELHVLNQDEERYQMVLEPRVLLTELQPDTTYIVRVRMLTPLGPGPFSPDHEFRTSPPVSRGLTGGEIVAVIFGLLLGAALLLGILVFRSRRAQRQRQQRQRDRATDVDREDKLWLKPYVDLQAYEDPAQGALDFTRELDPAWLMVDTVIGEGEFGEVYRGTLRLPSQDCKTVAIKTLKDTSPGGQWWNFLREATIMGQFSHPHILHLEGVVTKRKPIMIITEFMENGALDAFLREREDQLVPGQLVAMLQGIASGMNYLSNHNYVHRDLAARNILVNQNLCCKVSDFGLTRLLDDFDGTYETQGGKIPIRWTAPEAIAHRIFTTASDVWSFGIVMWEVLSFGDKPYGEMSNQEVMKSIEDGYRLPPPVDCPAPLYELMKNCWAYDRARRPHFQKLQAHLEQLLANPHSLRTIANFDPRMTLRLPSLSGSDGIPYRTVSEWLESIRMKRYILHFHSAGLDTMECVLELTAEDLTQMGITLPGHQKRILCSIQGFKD
Chain of DCAMKL3(h) (Q9C098 whole entry, looked up): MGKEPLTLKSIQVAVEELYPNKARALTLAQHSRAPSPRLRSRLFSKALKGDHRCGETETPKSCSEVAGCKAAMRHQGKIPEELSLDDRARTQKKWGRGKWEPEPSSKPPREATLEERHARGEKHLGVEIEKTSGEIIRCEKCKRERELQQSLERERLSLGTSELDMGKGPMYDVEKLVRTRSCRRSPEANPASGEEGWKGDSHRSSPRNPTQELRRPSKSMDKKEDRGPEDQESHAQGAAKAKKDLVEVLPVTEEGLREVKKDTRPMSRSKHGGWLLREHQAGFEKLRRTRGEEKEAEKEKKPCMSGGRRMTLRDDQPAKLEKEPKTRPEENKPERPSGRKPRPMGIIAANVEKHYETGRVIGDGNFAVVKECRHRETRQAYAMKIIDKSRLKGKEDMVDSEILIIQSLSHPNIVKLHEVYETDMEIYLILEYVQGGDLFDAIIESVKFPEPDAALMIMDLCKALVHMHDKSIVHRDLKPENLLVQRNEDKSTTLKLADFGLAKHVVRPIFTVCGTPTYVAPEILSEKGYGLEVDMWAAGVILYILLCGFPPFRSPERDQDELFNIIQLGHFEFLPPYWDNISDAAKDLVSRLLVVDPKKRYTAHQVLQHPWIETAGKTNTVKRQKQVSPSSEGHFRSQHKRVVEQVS

For `Cc1cc2c(-c3ccc(NC(=O)[C@H](N)CC(C)(C)C)cc3C)ccnc2[nH]1` [Compound F-90, (2R)-2-Amino-4,4-dimethyl-N-[3-methyl-4-(2-methyl-1H-pyrrolo[2,3-b]pyridin-4-yl)phenyl]pentanamide], the “% Activity” value (PKAcβ(h)) was 12%, the “% Activity” value (DCAMKL3(h)) was 86% and the “% Activity” value (PKBα(h)) was 87%. For the same compound, the “% Activity” value (TSSK2(h)) was 113%, the “% Activity” value (EphA1(h)) was 92% and the “% Activity” value (MST4(h)) was 106%.

— patent US20250243196A1, “CITRON KINASE INHIBITORS” (The Cleveland Clinic Foundation, priority 2021, published 2025)
